Results on four molecules are retold here after article PMC3728097 (PLoS ONE, 2013).

“Also recorded” adds a separate entry of the source.

For assay [1], the target named is α7 nAChRs in the monkey brain (Macaca mulatta, UniProt Q866A2). Type of assay: in vivo. Conditions: monkey SPECT, pretreatment SSR180711 5.0 mg/kg i.v. The procedure: Four monkeys (male, 7 year olds, 8 kg) were selected for SPECT imaging. Immediately after HPLC column purification, 50 µg (74 MBq) of the ^131I-CHIBA-1001 in 2 mL of normal saline were injected into the monkeys via intravenous administration after administration of saline (control) or SSR180711 (5.0 mg/kg, i.v.). […] At 0.5, 1.5, and 2 h after injection, imaging was performed in the Department of Nuclear Medicine, Peking University First Hospital, using SPECT (SPR SPECT; GE Healthcare, Inc.) equipped with a high-energy general purpose (HEGP) collimator. Static images (200,000 counts), obtained with a zoom factor of 2.0, were digitally stored in a 64 × 64 matrix.
α7 nAChRs in the monkey brain, sequence (Q866A2 23-502): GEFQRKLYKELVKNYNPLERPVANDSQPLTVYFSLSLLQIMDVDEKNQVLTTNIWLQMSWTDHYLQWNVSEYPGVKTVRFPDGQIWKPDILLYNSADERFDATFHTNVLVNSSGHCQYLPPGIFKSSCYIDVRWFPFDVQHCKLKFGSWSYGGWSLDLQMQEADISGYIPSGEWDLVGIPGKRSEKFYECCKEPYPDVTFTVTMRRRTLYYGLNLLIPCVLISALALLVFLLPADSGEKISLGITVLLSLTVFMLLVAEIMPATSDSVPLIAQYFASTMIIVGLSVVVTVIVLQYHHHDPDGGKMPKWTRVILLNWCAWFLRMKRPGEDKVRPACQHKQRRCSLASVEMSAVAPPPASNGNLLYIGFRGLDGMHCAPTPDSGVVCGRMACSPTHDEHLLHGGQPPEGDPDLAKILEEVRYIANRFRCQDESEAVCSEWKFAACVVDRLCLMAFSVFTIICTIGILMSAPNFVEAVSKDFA

Assay [2] deals with T1, α7 nAChRs in the rat brain (Rattus norvegicus, UniProt Q05941).
T1 construct: aliquots of a membrane suspension (200 µl), ^125I-CHIBA-1001 and the indicated concentrations of test drug; from tissue; host or cells: rat brain membranes (Sprague Dawley)
T1 sequence (Q05941 23-502): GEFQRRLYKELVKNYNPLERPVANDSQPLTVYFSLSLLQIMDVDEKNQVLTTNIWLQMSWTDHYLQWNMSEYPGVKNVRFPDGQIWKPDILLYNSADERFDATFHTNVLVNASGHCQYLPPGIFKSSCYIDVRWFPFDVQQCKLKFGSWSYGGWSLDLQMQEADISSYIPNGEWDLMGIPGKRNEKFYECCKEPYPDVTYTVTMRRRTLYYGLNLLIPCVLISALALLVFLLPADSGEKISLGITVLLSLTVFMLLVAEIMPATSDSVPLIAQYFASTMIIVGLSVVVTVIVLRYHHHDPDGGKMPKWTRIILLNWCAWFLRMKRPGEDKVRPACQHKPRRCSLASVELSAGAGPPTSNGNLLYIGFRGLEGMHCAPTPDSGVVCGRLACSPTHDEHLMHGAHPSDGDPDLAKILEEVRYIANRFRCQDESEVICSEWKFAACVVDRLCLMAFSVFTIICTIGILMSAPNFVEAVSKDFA
Put plainly: In vitro saturation binding assay of ^125I-CHIBA-1001 in rat brain membranes. To be noted: 4°C, n = 5, mean ± S.E.M.
Experimental: Male SD (Sprague Dawley) rats (8–10 week olds, 180–200 g) were used for the experiments. After sacrificing the rats by decapitation, the brains were rapidly removed from the skulls.
The tissues of each brain region were homogenized in 15 volumes of 50 mM Tris–HCl buffer (120 mM NaCl, 2 mM KCl, 1 mM CaCl2, 1 mM MgCl 2, pH 7.4 at 4°C) using a Polytron homogenizer at setting No. 5 for 30s on ice. The membranes were centrifuged in 50 ml polypropylene tube at 48,000 g for 20 min at 4°C. The supernatant was discarded and the pellet re-suspended, homogenized and centrifuged as above. The membrane pellet was washed and re-suspended in ice-cold buffer and was then centrifuged two more times. The final pellet was re-suspended in 10 volumes of the same buffer.
Assays of the binding of ^125I-CHIBA-1001 to α7 nAChRs in the rat brain were performed according to the method published previously [21], [22]. The reaction mixtures were consisted of aliquots of a membrane suspension (200 µl), ^125I-CHIBA-1001 and the indicated concentrations of test drug in a final volume of 0.5 ml in duplicate. Non-specific binding was estimated in the presence of 30 µM SSR180711. Binding reaction was conducted for 150 min at 4°C for the equilibrium saturation and inhibition studies.

The next assay has as its target α7 nAChRs. To be noted: cited from earlier work.
Where [3] appears, read: blocked cerebellum as nonspecific binding.

Regarding `O=C(Oc1ccc(Br)cc1)N1CCN2CCC1CC2` [SSR180711], in assay [1], the “blockade of ^131I-CHIBA-1001 uptake in the cerebellum” value is given as “minimal” and the “effect of pretreatment on uptake of ^131I-CHIBA-1001 radioactivity in the brain” value is recorded as “blocked the radioactive uptake in the brain successfully; also recorded: decreased”. Further, in assay [1] (setting [3]), the “decrease of specific binding of ^131I-CHIBA-1001 in the frontal cortex” value was 38.5±2.1% and the “decrease of specific binding of ^131I-CHIBA-1001 in the thalamus” value is given as 35.7±2.8%. In the case of `O=C(Oc1ccc(I)cc1)N1CCN2CCC1CC2` [^125I-CHIBA-1001], in assay [2] (read-out: apparent Kd), the Kd stood at 81.9 ± 7.95 nM. `O=C(Oc1ccc([125I])cc1)N1CCN2CCC1CC2` [^125I-CHIBA-1001] had a B max in assay [2] of 63.97±17.45 fmol/mg protein.

For the molecule [^125I]methyllycaconitine [^125I-MLA], the Kd on α7 nAChRs was 1.8 nM.
